{"source": "patent US8759371B2", "about": "“Heterocyclic compounds and their uses” (Amgen Inc., priority 2010, dated 2014)", "origin": "cited, not measured here", "key": {"[1]": {"tested_on": "ovalbumin-induced airway inflammation"}, "[2]": {"tested_on": "passive cutaneous anaphylaxis (PCA)", "conditions": "absence of functional delta (IC 87114 and p110δ D910A mice)"}, "p110δ": {"molecular_target": "T1, p110δ (Homo sapiens, UniProt O00329)", "T1 sequence (O00329 1-1044)": "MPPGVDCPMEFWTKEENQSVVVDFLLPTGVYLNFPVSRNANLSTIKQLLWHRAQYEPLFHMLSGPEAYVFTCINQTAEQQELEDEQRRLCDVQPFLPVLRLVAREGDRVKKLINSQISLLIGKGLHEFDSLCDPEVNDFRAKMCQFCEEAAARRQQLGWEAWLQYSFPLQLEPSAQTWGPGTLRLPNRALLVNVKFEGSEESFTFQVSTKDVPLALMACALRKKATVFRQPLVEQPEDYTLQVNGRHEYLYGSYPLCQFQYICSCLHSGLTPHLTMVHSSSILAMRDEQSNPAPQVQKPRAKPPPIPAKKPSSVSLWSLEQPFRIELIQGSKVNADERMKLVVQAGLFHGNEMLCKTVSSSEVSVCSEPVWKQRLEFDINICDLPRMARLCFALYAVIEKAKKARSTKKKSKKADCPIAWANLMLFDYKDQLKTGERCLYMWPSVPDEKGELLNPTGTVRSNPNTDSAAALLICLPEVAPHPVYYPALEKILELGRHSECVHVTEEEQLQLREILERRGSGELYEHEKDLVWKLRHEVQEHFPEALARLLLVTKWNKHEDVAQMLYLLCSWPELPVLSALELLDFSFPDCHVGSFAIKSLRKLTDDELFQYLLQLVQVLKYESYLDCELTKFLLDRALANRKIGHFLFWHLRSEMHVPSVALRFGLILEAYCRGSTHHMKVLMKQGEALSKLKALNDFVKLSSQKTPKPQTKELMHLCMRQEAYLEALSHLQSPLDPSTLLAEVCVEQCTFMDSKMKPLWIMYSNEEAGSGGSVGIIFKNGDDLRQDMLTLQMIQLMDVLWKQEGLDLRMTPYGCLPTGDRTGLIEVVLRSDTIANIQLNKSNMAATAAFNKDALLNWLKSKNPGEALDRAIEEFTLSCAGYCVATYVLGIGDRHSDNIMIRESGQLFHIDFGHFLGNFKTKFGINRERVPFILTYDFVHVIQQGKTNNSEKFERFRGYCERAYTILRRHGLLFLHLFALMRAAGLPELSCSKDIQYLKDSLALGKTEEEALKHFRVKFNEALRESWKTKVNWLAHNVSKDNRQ"}, "[3]": {"tested_on": "systemic lupus erythematosis model", "conditions": "in vivo"}, "[4]": {"tested_on": "rheumatoid arthritis model", "conditions": "in vivo"}}, "data": [{"smiles": "Cc1ccccc1-n1c(Cn2cnc3c(N)ncnc32)nc2cccc(C)c2c1=O", "note": "[IC87114]", "values": [{"measurement": "inflammation and disease in murine model of asthma", "setting": "[1]", "value": "significantly ameliorate inflammation and disease"}, {"measurement": "passive cutaneous anaphylaxis (PCA)", "setting": "[2]", "value": "significantly reduced"}, {"measurement": "inhibits p110δ", "setting": "p110δ", "value": "high nanomolar range (triple digit)"}, {"measurement": "activity against any protein kinases tested", "setting": "protein kinases", "value": "no activity"}]}, {"smiles": "O=C1NC(=O)/C(=C\\c2ccc3nccnc3c2)S1", "note": "[AS 605240]", "values": [{"measurement": "onset of disease in model of systemic lupus erythematosis", "setting": "[3]", "value": "delay onset of disease"}, {"measurement": "efficacy in mouse model of rheumatoid arthritis", "setting": "[4]", "value": "efficacious"}]}]}
